Three molecules from patent publication US20240158394A1, “NEK7 INHIBITORS” (Halia Therapeutics, Inc., priority 2022, published 2024) can be followed below.

Assay [1] concerns the target full-length recombinant human NEK7 (Homo sapiens (Human), UniProt Q8TDX7). In words: NEK7 Enzymatic Assay. Type of assay: biochemical. Conditions: casein substrate, [33P]-ATP, 2 hours at room temperature. The method in brief:
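GST-tagged full-length human NEK7 (Sf9-expressed) with 1 mg/mL casein in HEPES pH 7.5/MgCl2 buffer, 1% DMSO; compounds 10 μM–0.5 nM preincubated 20 min at RT. Reaction started with [^33P]-ATP, 2 h at RT, P81 filter radioactivity read; IC50 from % activity remaining versus vehicle.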

In another assay the test system is IL-1β release. Kind of assay: IL-1β Release Assay. Conditions: Homo sapiens; PMA-treated THP-1 cells, 250 ng/mL LPS then 20 μM nigericin; cleaved IL-1β in media. It is filed as cell-based. As to the method: Approximately 1.5 million THP-1 cells were plated in each well of a 6-well TC plate and incubated with 40 nM PMA in RPMI (10% FBS, 1% Penstrep) for 24 hours. The media was then removed, and cells were rested in RPMI (10% FBS, 1% Penstrep) for 24 hours after which time the media was removed and cells were pre-treated for 2 hours with various concentrations of compounds of interest (typically serial 3-fold dilution in RPMI+5% FBS, concentrations ranging from 1 μM to 0.5 nM) in RPMI (5% FBS). The media was again removed, and cells were incubated with 250 ng/mL LPS and compounds of interest (concentrations as above) in RMPI (5% FBS) for 2 hours. The media was removed for a last time and cells were incubated with 20 μM nigericin and compounds of interest (concentrations as above) in Opti-MEM for 30 minutes. Cell media was then collected and the amount of cleaved IL-1β was determined using a JESS instrument (Protein Simple) and standard protocols. Cleaved Il-1β antibody was obtained from Cell Signaling (catalogue #83186S) and was used at 1:20 dilution in antibody diluent 2. Protein Simple 1× anti-Rabbit HRP secondary antibody was used along with Protein Simple luminol and peroxide for chemiluminescent detection. Primary antibody incubation time was increased from 30 minutes to 60 minutes.

Sequence of full-length recombinant human NEK7 (Q8TDX7 whole entry): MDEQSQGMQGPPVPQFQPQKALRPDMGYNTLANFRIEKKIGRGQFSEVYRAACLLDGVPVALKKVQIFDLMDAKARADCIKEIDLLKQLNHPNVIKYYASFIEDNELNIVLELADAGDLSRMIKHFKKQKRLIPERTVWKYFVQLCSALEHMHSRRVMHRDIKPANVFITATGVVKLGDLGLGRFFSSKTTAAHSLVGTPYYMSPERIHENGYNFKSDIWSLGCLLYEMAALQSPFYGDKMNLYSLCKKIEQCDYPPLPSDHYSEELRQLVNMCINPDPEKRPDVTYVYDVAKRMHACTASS

Take `Nc1ncnc2c1c(-c1ccc(NC(=O)Nc3cc(C4(C(F)(F)F)CC4)on3)c3oncc13)cn2C1CC1` [Example I-68, 1-(4-(4-amino-7-cyclopropyl-7H-pyrrolo[2,3-d]pyrimidin-5-yl)benzo[d]isoxazol-7-yl)-3-(5-(1-(trifluoromethyl)cyclo-propyl)isoxazol-3-yl)urea]: the results for the half-inhibitory concentration (IC50) (in assay [1]; in the assay with IL-1β release) were < 0.2 µM and 0.1 to 0.25 µM, respectively.

In the case of `CN1CCN(Cc2ccc(NC(=O)Nc3ccc(-c4cn(C5CC5)c5ncnc(N)c45)c4ncoc34)cc2C(F)(F)F)CC1` [Example I-72, 1-(4-(4-amino-7-cyclopropyl-7H-pyrrolo[2,3-d]pyrimidin-5-yl)benzo[d]oxazol-7-yl)-3-(4-((4-methylpiperazin-1-yl)-methyl)-3-(trifluoromethyl)-phenyl)urea], the values for the IC50 (in assay [1]; in the assay on IL-1β release) were 0.5 to 2 µM and > 1 µM, respectively.

Take `Nc1ncnc2c1c(-c1ccc(NC(=O)Nc3cc(C4(C(F)(F)F)CC4)no3)c3nccn13)cn2C1CC1` [Example I-22, 1-(5-(4-amino-7-cyclopropyl-7H-pyrrolo[2,3-d]pyrimidin-5-yl)imidazo[1,2-a]pyridin-8-yl)-3-(3-(1-(trifluoromethyl)-cyclopropyl)isoxazol-5-yl)-urea]: the concentration for half-maximal inhibition (IC50) is < 0.2 µM in assay [1] and < 0.1 µM with IL-1β release.
